Assay results: PubChem BioAssay AID1645868 (Buhrlage Lab, Dana-Farber Cancer Institute and Novartis …, 2021)
Calls of active or inactive are those of the source.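 Rule for the calls: active = maximal percent inhibition of the deubiquitinase OTUD3 of at least 30% across the tested doses; inactive = the rest.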

Each compound was assayed against OTU domain-containing protein 3 (Homo sapiens) (UniProt Q5T2D3) (assay: Validation of screening hits, potency titration, in vitro enzymatic, OTU domain-containing protein 3 DUB inhibitors (AID 1645868)). Conditions: purified OTUD3, ubiquitin-rhodamine cleavage fluorescence, 2 h.
OTU domain-containing protein 3 (Homo sapiens), sequence (Q5T2D3 whole entry, looked up, the tested form may be a part): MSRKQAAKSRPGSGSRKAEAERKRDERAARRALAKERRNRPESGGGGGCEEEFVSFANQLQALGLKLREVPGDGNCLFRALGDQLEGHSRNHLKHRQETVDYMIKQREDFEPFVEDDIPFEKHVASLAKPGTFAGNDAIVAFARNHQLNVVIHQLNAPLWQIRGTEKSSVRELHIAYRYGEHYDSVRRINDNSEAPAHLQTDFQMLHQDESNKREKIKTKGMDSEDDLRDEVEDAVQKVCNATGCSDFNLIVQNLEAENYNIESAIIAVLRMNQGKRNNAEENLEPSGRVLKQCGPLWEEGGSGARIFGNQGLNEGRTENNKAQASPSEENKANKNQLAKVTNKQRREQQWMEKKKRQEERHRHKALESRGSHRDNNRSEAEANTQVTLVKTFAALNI
For `COc1cc(N)c(Cl)cc1C(=O)OCC(=O)c1ccc2c(c1)OCCO2`, the IC50 was > 50 µM (inactive).
`CCOc1ccccc1-c1nc(-c2nnn(Cc3ccccc3)c2C)no1` was tested, and the IC50 was > 50 µM (inactive).
`COc1ccc(CC(=O)Nc2ccc3nc(N4CCOCC4)cc(C)c3c2)cc1` was tested, and the IC50 was > 50 µM (inactive).
With `COc1ccccc1C(=O)N1CCC(S(=O)(=O)c2ccc(-c3ccco3)cc2)CC1` the IC50 was > 50 µM (inactive).
`O=C(/C=C/c1ccc(F)cc1)N1CCC(Cc2ccccc2)CC1` gave an IC50 of 49.9 µM.
For `Cc1ccc(-c2ccc(N3CCOCC3)nn2)cc1S(=O)(=O)N1CCOCC1`, the IC50 was > 50 µM (inactive).
Compound `COc1ccc(OC)c(NC(=O)Cn2c(=O)n(CC3CCC(C(=O)NCCc4ccccc4)CC3)c(=O)c3ccccc32)c1` (stereo unspecified) has an IC50 of 31.3 µM.
In the case of `O=C(COC(=O)CCc1ccc(S(=O)(=O)N2CCOCC2)cc1)Nc1ccc2c(c1)OCCO2`, the IC50 is reported as > 50 µM (inactive).
With `O=C(OCc1cccc(Cl)c1)c1ccc2ccccc2n1` the IC50 was > 50 µM (inactive).
With `CO[C@H]1/C=C/OC2(C)Oc3c(C)c(O)c4c(c3C2=O)C2(C=C(NC(=O)/C(C)=C\C=C\[C@H](C)[C@H](O)[C@@H](C)[C@@H](O)[C@@H](C)[C@H](OC(C)=O)C1C)C4=O)OCC(=O)O2` (stereo partly specified) the IC50 was > 50 µM (inactive).
With `CC(C)=CCC/C(C)=C/Cc1c(O)cc2c(c1O)C(=O)OC2` the IC50 was 3.25 µM.
For `CC1CCCN(S(=O)(=O)c2cc3cc(F)ccc3oc2=O)C1` (stereo unspecified), the IC50 was > 50 µM (inactive).
For `Nc1nc(-c2ccc[nH]2)cs1`, the IC50 was > 50 µM (inactive).
`Cc1ccc(NC(=O)c2sc(=S)n(CCc3ccccc3)c2N)cc1` gave an IC50 of 18 µM.
In the case of `O=C(Cn1c(=O)n(Cc2ccco2)c(=O)c2ccc(C(=O)NC3CCCC3)cc21)NCc1ccco1`, the IC50 is reported as > 50 µM (inactive).
`COc1ccc(C(=O)NCC(c2ccc3c(c2)CCCN3C)N2CCCC2)cc1` (stereo unspecified) was tested, and the IC50 was > 50 µM (inactive).
In the case of `Cc1ccc2[nH]c(=O)c(CN(Cc3cccnc3)C(=O)c3cccc(Cl)c3)cc2c1`, the IC50 is reported as > 50 µM (inactive).
For `Cc1nc2nc(SCc3nc4ccccc4n3C)[nH]c2cc1Br`, the IC50 was > 50 µM (inactive).
For `CC(C)(C)c1ccc(C(=O)Nc2ccc(Cn3cncn3)cc2)cc1`, the IC50 was > 50 µM (inactive).
For `CC1=C[C@H]2N(c3ccc(C)cc31)[C@H](C(=O)c1cccs1)[C@@H](C(=O)c1ccc(F)cc1)[C@]21C(=O)Nc2ccccc21`, the IC50 was > 50 µM (inactive).
`Cc1cc(C)c2cc(CN(CCc3ccccc3)C(=O)Nc3ccccc3)c(=O)[nH]c2c1` was tested, and the IC50 was > 50 µM (inactive).
`Cc1ccc(C(=O)NCCc2nc(-c3ccc4c(c3)OCO4)n[nH]2)cc1F` was tested, and the IC50 was > 50 µM (inactive).
In the case of `NS(=O)(=O)c1cc(C(=O)OCC(=O)NC2CCCc3ccccc32)ccc1Cl` (stereo unspecified), the IC50 is reported as 49 µM.
Work on `COc1cccc(NC(=O)Nc2ccc(CCc3nc4ccccc4[nH]3)cc2)c1` yielded an IC50 of 48.5 µM.
`O=C(NCc1ccc(Br)cc1)c1ccc(-c2cccnc2)nc1` was tested, and the IC50 was > 50 µM (inactive).
`O=C(c1cnccn1)N1CCc2[nH]c3ccc(F)cc3c2C1` was tested, and the IC50 was > 50 µM (inactive).
For `CSc1nc2ncn(CC(=O)Nc3cccc(Cl)c3)c(=O)c2s1`, the IC50 was > 50 µM (inactive).
In the case of `Cc1ccc(Nc2nc(C(=O)NCc3ccc4c(c3)OCO4)cc3occc23)cc1Cl`, the IC50 is reported as > 50 µM (inactive).
For `CCCC(=O)N1CCC2(CC1)Nc1ccccc1NC2=O`, the IC50 was > 50 µM (inactive).
In the case of `Cc1ccc(OCCn2c(=N)n(C(C)C)c3ccccc32)cc1`, the IC50 is reported as > 50 µM (inactive).
`CCOC(=O)c1cc2c(ccn2C)n1CC(=O)N1CCC(C)CC1` was tested, and the IC50 was > 50 µM (inactive).
With `NC(=O)Cn1c(=O)n(Cc2ccc(C(=O)NC3CCCC3)cc2)c(=O)c2ccccc21` the IC50 was > 50 µM (inactive).
`O=C(Nc1ccc(N2CCOCC2)cc1)c1ccc(-c2ccc(N3CCCC3)nn2)cc1` was tested, and the IC50 was > 50 µM (inactive).
In the case of `O=C(Nc1ccccc1)c1nc2c(s1)CCN(C(=O)c1ccccc1)CC2`, the IC50 is reported as > 50 µM (inactive).
`N#Cc1c(SCCO)nc(N2CCCC2)c2c1CCCC2` was tested, and the IC50 was > 50 µM (inactive).
For `O=C(COc1ccc2c(c1)CCC2)Nc1ccc2c(c1)CCC2`, the IC50 was > 50 µM (inactive).
`Cc1ccc2c(c1C)NC(=O)[C@]21[C@@H]2C(=O)N(c3cccc(Cl)c3)C(=O)[C@@H]2[C@@H]2CCCN21` was tested, and the IC50 was > 50 µM (inactive).
With `CC1CCc2sc(NC(=O)c3ccccc3Oc3ccccc3)c(C(N)=O)c2C1` (stereo unspecified) the IC50 was 31.6 µM.
`Cc1cc(C(F)(F)F)n2nc(C3CCN(C(=O)c4cnn(C)c4C)C3)cc2n1` (stereo unspecified) was tested, and the IC50 was > 50 µM (inactive).
In the case of `Cc1nn(-c2ccccc2)c2c1N=C1C(Cl)=CC(Cl)=CN1C21C(=O)Nc2ccccc21` (stereo unspecified), the IC50 is reported as > 50 µM (inactive).
For `CCc1ccc(C(C)NC(=O)C2CCN(c3ccc4nncn4n3)CC2)cc1` (stereo unspecified), the IC50 was > 50 µM (inactive).
With `N=C1C(c2nc3ccccc3s2)=C(O)CN1Cc1ccc(F)cc1` the IC50 was > 50 µM (inactive).
`COc1ccc(/C=C/C(=O)Nc2ccc3c(c2)OCCO3)cc1Br` was tested, and the IC50 was > 50 µM (inactive).
In the case of `CC(=O)c1ccc(Cc2ncc(C(F)(F)F)cc2Cl)s1`, the IC50 is reported as > 50 µM (inactive).
With `CCc1nc(N2CCCC2=O)sc1C(=O)Nc1cccc(C(C)=O)c1` the IC50 was > 50 µM (inactive).
In the case of `Cc1nc(SCC(=O)Nc2cc(Cl)ccc2C)c2oc3ccccc3c2n1`, the IC50 is reported as > 50 µM (inactive).
`O=C(Nc1cccc(F)c1)c1ncoc1-c1ccco1` was tested, and the IC50 was > 50 µM (inactive).
With `Cc1cc2nc(Oc3cccc(Cl)c3)c3ccccc3n2n1` the IC50 was > 50 µM (inactive).
In the case of `CC(CCc1ccccc1)NC(=O)Cn1c(=O)c2cccn2c2ccccc21` (stereo unspecified), the IC50 is reported as 33.5 µM.
In the case of `O=C(Nc1ccc2c(c1)OCCO2)C1CCC(Cn2cnc3ccccc3c2=O)CC1` (stereo unspecified), the IC50 is reported as > 50 µM (inactive).
`CN(C)c1ccc(C2CC(c3c(O)n(C)c(=O)[nH]c3=O)=Nc3ccccc3S2)cc1` (stereo unspecified) was tested, and the IC50 was > 50 µM (inactive).
In the case of `COc1cccc2c1C(=O)c1ccc3c(c1C2=O)C(=O)CC(C)(O)C3` (stereo unspecified), the IC50 is reported as > 50 µM (inactive).
`Cc1nc(N2CCCC2)ncc1C(=O)Nc1ccc(F)c(F)c1` was tested, and the IC50 was > 50 µM (inactive).
`CCn1cnc2c1c(=O)n(CC(=O)NCc1ccccc1Cl)c(=O)n2Cc1ccccc1` was tested, and the IC50 was > 50 µM (inactive).
Work on `CCOc1ccc2c(c1)c(=O)c(C(=O)c1ccccc1)cn2CC(=O)Nc1ccc2c(c1)OCCO2` yielded an IC50 of 43 µM.
In the case of `Cc1cc(=O)n(CC(=O)Nc2ccccc2F)c(Nc2ccc(F)cc2)n1`, the IC50 is reported as 16.3 µM.
With `Fc1ccccc1N1CCN(c2ncc3c(n2)CCN(Cc2ccccn2)C3)CC1` the IC50 was > 50 µM (inactive).
In the case of `Cc1ccc(-c2noc(-c3nnc(SCC(=O)NC4CCCC4)n3C)n2)cc1`, the IC50 is reported as > 50 µM (inactive).
In the case of `Cc1ccc(CNC(=O)Cn2cnc3c(cnn3-c3cccc(Cl)c3)c2=O)cc1`, the IC50 is reported as > 50 µM (inactive).
For `COc1ccc(-c2ccnc(-c3ccc(OCc4cccc(F)c4)cc3)n2)cc1`, the IC50 was 45.8 µM.
`Nc1ccccc1SCc1noc(-c2cccs2)n1` was tested, and the IC50 was > 50 µM (inactive).
`Cc1cccc(Cl)c1NC(=O)Nc1ccc(NC(=O)c2ccccc2O)cc1` was tested, and the IC50 was 47.8 µM.
In the case of `COc1cccc(C(=O)Oc2ccc3c(=O)c(-c4ccc(OC)c(OC)c4)coc3c2)c1`, the IC50 is reported as > 50 µM (inactive).
Work on `COc1ccc(NC(=O)Cn2cc(C(=O)c3ccc(C)cc3)c(=O)c3ccccc32)cc1` yielded an IC50 of 11.4 µM.
For `Cc1nc2ccccc2nc1SCC(=O)Nc1ccc2c(c1)OCO2`, the IC50 was > 50 µM (inactive).
With `Cc1c2c(nc3ccccc13)-c1ccccc1CC2` the IC50 was > 50 µM (inactive).
With `COc1ccc(CNC(=O)CCc2nc3sc4c(c3c(=O)[nH]2)CCCCC4)cc1` the IC50 was > 50 µM (inactive).
In the case of `CCNc1nc(SCC(C)=O)nc2sc3c(c12)CCC(C)C3` (stereo unspecified), the IC50 is reported as > 50 µM (inactive).
With `CC(C)OC(=O)c1cc2c(ccn2C)n1CC(=O)N1CCN(C(=O)c2ccco2)CC1` the IC50 was > 50 µM (inactive).
With `CCOC(=O)[C@@H]1[C@@H](c2ccccc2)CN2CCN(C(=O)c3cnccn3)C[C@H]12` the IC50 was > 50 µM (inactive).
In the case of `N#Cc1ccccc1COC(=O)c1ccc2ccccc2n1`, the IC50 is reported as > 50 µM (inactive).
In the case of `CCc1ccc(NC(=O)COC(=O)c2n[nH]c3ccccc23)cc1`, the IC50 is reported as 49.8 µM.
`Cc1nn(C)c2c1[C@@H](c1ccc(F)cc1)[C@H](NC(=O)c1ccccc1)C(=O)N2` was tested, and the IC50 was > 50 µM (inactive).
In the case of `COC(=O)c1cc2c(ccn2C)n1CC(=O)NC1CC1`, the IC50 is reported as > 50 µM (inactive).
Work on `Cc1nc(-c2noc3ccc(C(=O)Nc4cccnc4)cc23)cs1` yielded an IC50 of 42.4 µM.
In the case of `COc1ccccc1-c1nc2c3c(C)c(C)n(Cc4cccnc4)c3ncn2n1`, the IC50 is reported as > 50 µM (inactive).
For `Cc1cnc2nc3c(cc2c1)CN(CCc1ccc(Cl)cc1)CC3`, the IC50 was > 50 µM (inactive).
`COc1cc(C(=O)OCc2csc(-c3ccccc3)n2)ccc1OCC(=O)Nc1ccc(F)cc1` was tested, and the IC50 was > 50 µM (inactive).
With `O=C(Nc1cc(-c2cccnc2)no1)c1ccc(F)c(F)c1` the IC50 was 31.4 µM.
`CCn1cc(-c2nc(-c3ccccn3)no2)c(=O)c2cc(F)ccc21` was tested, and the IC50 was > 50 µM (inactive).
With `Cc1cc(C)c(O)c(-c2cc(C(=O)Nc3ccccc3Cl)[nH]n2)c1` the IC50 was 12.7 µM.
For `COc1ccc(-c2nonc2NC(=O)C(c2ccccc2)c2ccccc2)cc1OC`, the IC50 was > 50 µM (inactive).
Compound `Cc1sc2ccn(C)c(=O)c2c1C(=O)NC1CCCC1` has an IC50 of 30.8 µM.
With `CN(CCCNC(=O)c1cccc2c1SCCC2=O)c1ccccc1` the IC50 was > 50 µM (inactive).
Compound `O=C(COc1ccccc1-c1nnc(-c2ccccc2)o1)Nc1ccc(F)cc1F` has an IC50 of 39.4 µM.
With `COc1ccc(N2C(=O)[C@@H]3[C@H]4c5ccccc5C=CN4C(C(=O)Nc4ccc5c(c4)OCO5)[C@@H]3C2=O)cc1` (stereo partly specified) the IC50 was > 50 µM (inactive).
With `O=C(COc1cccc(-n2cnnn2)c1)Nc1ccc2c(c1)OCCO2` the IC50 was > 50 µM (inactive).
For `Cc1ccc(NC(=O)Cc2nnc3cc(-c4nc(C)no4)ccn23)cc1`, the IC50 was 21.8 µM.
With `CCOc1cc(C2C3=C(CC(C)(C)CC3=O)Nc3onc(C)c32)ccc1O` (stereo unspecified) the IC50 was > 50 µM (inactive).
In the case of `CSc1nc2ncc3c(=O)n(CCc4ccccc4)ccc3n2n1`, the IC50 is reported as > 50 µM (inactive).
With `O=[N+]([O-])c1ccccc1C(c1c[nH]c2ccccc12)c1c[nH]c2ccccc12` the IC50 was 49.4 µM.
In the case of `COC(=O)C1C(c2ccc(Cl)cc2Cl)C2(C(=O)c3ccccc3C2=O)C2C=Cc3ccccc3N12` (stereo unspecified), the IC50 is reported as > 50 µM (inactive).
With `COc1ccc2c(c1)c(N1CCCC1=O)c(C(=O)NCc1cccc(OC)c1OC)n2C` the IC50 was > 50 µM (inactive).
Work on `COc1cccc(NC(=O)Nc2nccn(-c3ccc(F)cc3)c2=O)c1` yielded an IC50 of 49.2 µM.
In the case of `COc1ccc(CCNC(=O)COc2ncnc3oc(C)c(C)c23)cc1OC`, the IC50 is reported as > 50 µM (inactive).
With `C/C=C1/C2=CCCN3C(=O)O[C@H]([C@H]1O)[C@H]23` the IC50 was > 50 µM (inactive).
